Laboratory results as given in patent publication US10865216B2, “Tricyclic Gyrase inhibitors” (MERCK SHARP & DOHME CORP., priority 2012, dated 2020).
Values after ≈ are worked out from the molar mass of the structure shown.

These compounds were tested on S. aureus ATCC 13709 (assay: MIC, S. aureus ATCC 13709). Conditions: S. aureus; Alamar Blue read after overnight incubation at 35° C.
Format: cell-based

Structure (SMILES)	MIC Sa
CNc1cc(F)cc2c1[nH]c1nc(Oc3cnc(NCC4CCCO4)nc3)nc(N3C[C@H](N)C4(CC4)C3)c12 (some centres unmarked) [Compound 4.406]	≤0.5 µg/mL
N[C@@H]1CCN(c2nc(Sc3cnc4ccc[n+]([O-])c4c3)nc3[nH]c4c(Cl)cccc4c23)C1 [Compound 1.04]	32 µg/mL (≈ 69 µM)
CNc1cc(F)cc2c1[nH]c1nc(Oc3cnc4c(c3)OCCO4)nc(N3CC4CC(N)C4C3)c12 (centres unmarked) [Compound 4.294]	≤0.5 µg/mL

Same assay, conditions: Staphylococcus aureus, ATCC13709, S. aureus; Alamar Blue read after overnight incubation at 35° C.; read-out: MIC Sa

Structure (SMILES)	MIC
CNc1cccc2c1[nH]c1nc(Oc3cncnc3)cc(N3CC4CC4(N)C3)c12 (centres unmarked) [Compound 3.1]	1 µg/mL (≈ 2.58 µM)
CNc1cc(F)cc2c1[nH]c1nc(Sc3cnc4cccnc4c3)nc(N3CC(N)C4(CC4)C3)c12 (centres unmarked) [Compound 1.62]	≤ 0.5 µg/mL
CNc1cccc2c1[nH]c1nc(Oc3cncnc3)cc(N3CCC(N)CC3)c12 [Compound 3.64]	16 µg/mL (≈ 41.1 µM)
CNc1cccc2c1[nH]c1nc(Oc3cnc(N)nc3)cc(N3CC4C(N)C4C3)c12 (centres unmarked) [Compound 3.32]	≤ 0.5 µg/mL
CNc1cccc2c1[nH]c1nc(Oc3cncc(C(=O)O)c3)cc(N3CC4C(N)C4C3)c12 (centres unmarked) [Compound 3.20]	> 8 µg/mL
CNc1cccc2c1[nH]c1nc(Oc3cncc(C#N)c3)cc(N3CCN(CCN)CC3)c12 [Compound 3.55]	64 µg/mL (≈ 145 µM)
CNc1cccc2c1[nH]c1nc(Sc3cnc4cccnc4c3)nc(N3CC4C(C3)C4(N)CO)c12 (centres unmarked) [Compound 1.30]	16 µg/mL (≈ 33 µM)
CNc1cccc2c1[nH]c1nc(Oc3cncc(C#N)c3)cc(N3CC[C@@H](N)C3)c12 [Compound 3.3]	0.5 µg/mL (≈ 1.25 µM)
CNc1ncnc2c1[nH]c1nc(Oc3cnc(C)nc3)nc(N3CC4C(N)C4C3)c12 (centres unmarked) [Compound 7.05]	8 µg/mL (≈ 19.8 µM)
CNc1ccc(C)c2c1[nH]c1nc(Sc3cnc4ccc[n+]([O-])c4c3)nc(N3CC4C(N)C4C3)c12 (centres unmarked) [Compound 1.73]	≤ 0.5 µg/mL
CNc1ncnc2c1[nH]c1nc(Oc3cnc(C)nc3)nc(N3CCC4(CC4N)C3)c12 (centres unmarked) [Compound 7.09]	8 µg/mL (≈ 19.1 µM)
CNc1cccc2c1[nH]c1nc(Oc3cncnc3)cc(N3CCN(Cc4ccccn4)CC3)c12 [Compound 3.54]	8 µg/mL (≈ 17.1 µM)

Same assay, conditions: Staphylococcus aureus, ATCC13709, Table 16; new R4 substituents; read-out: SA MIC

Structure (SMILES)	MIC
CNc1cc(F)cc2c1[nH]c1nc(Oc3cnc(C)nc3)nc(N3CC(N)C(C(=O)N4CCOCC4)C3)c12 (centres unmarked) [drawing 1827]	1 µg/mL (≈ 1.92 µM)
CNc1cc(F)cc2c1[nH]c1nc(Oc3cnc(C)nc3)nc(N3CCC[C@H]3CN)c12	1 µg/mL (≈ 2.37 µM)

Same assay, conditions: Table 18, Sa

Structure (SMILES)	MIC Sa
CNc1cc(F)cc2c1[nH]c1nc(Sc3nncs3)nc(N3C[C@H]4C[C@@H]3C[C@H]4N)c12 [Compound 10.11]	≤ 0.5 µg/mL
CNc1cc(F)c(Cl)c2c1[nH]c1nc(Oc3cnc4ccnn4c3)nc(N3CC4(CC[C@@H]4N)C3)c12 [Compound 10.94]	≤ 0.5 µg/mL
CNc1cc(F)cc2c1[nH]c1nc(SCc3cccnc3)nc(N3C[C@H]4C[C@@H]3C[C@H]4N)c12 [Compound 10.49]	≤ 0.5 µg/mL
CNc1cc(F)cc2c1[nH]c1nc(Oc3cnc(C)nc3)nc(N3C[C@H]4C[C@@H]3C[C@H]4N(CCO)CCO)c12 [Compound 10.115]	≤ 0.5 µg/mL
CNc1cc(F)cc2c1[nH]c1nc(Oc3cnc(C)nc3)nc(N3CC4CCC4(N)C3)c12 (centres unmarked) [Compound 10.65]	≤ 0.5 µg/mL
CNc1cc(F)cc2c1[nH]c1nc(Oc3cnc(C(C)O)nc3)nc(N3C[C@H]4C[C@@H]3[C@H](C)[C@H]4N)c12 (some centres unmarked) [Compound 10.78]	1 µg/mL (≈ 2.09 µM)
C=Cc1cc(F)c(F)c2c1[nH]c1nc(Oc3cnc(C)nc3)nc(N3C[C@H]4C[C@@H]3C[C@H]4N)c12 [Compound 10.110]	≤ 0.5 µg/mL
CNc1cc(F)cc2c1[nH]c1nc(Oc3cnc4c(C)cnn4c3)nc(N3C[C@H]4C[C@@H]3C[C@H]4N)c12 [Compound 10.19]	≤ 0.5 µg/mL
CNc1cc(F)cc2c1[nH]c1nc(Oc3cnc(C(C)O)c(Cl)c3)nc(N3CC4C[C@@H](N)C4C3)c12 (some centres unmarked) [Compound 10.17]	≤ 0.5 µg/mL
CNc1cc(F)cc2c1[nH]c1nc(Oc3cnc4ccnn4c3)nc(N3C[C@H]4CCN[C@H]4C3)c12 [Compound 10.13]	≤ 0.5 µg/mL
CNc1cc(F)cc2c1[nH]c1nc(Oc3ccc4cncnc4c3)nc(N3C[C@H]4C[C@@H]3C[C@H]4N)c12 [Compound 10.97]	≤ 0.5 µg/mL

The compounds below were run on E. coli ATCC 25922 (assay: MIC, E. coli ATCC 25922). Conditions: E. coli; Alamar Blue read after overnight incubation at 35° C.
Format: cell-based

Structure (SMILES)	MIC Ec
CNc1cc(F)cc2c1[nH]c1nc(Oc3cnc(NCC4CCCO4)nc3)nc(N3C[C@H](N)C4(CC4)C3)c12 (some centres unmarked) [Compound 4.406]	1 µg/mL (≈ 1.92 µM)
N[C@@H]1CCN(c2nc(Sc3cnc4ccc[n+]([O-])c4c3)nc3[nH]c4c(Cl)cccc4c23)C1 [Compound 1.04]	64 µg/mL (≈ 138 µM)
CNc1cc(F)cc2c1[nH]c1nc(Oc3cnc4c(c3)OCCO4)nc(N3CC4CC(N)C4C3)c12 (centres unmarked) [Compound 4.294]	1 µg/mL (≈ 2.09 µM)

Same assay, conditions: Escherichia coli, ATCC25922, E. coli; Alamar Blue read after overnight incubation at 35° C.; read-out: MIC Ec

Structure (SMILES)	MIC
CNc1cccc2c1[nH]c1nc(Oc3cncnc3)cc(N3CC4CC4(N)C3)c12 (centres unmarked) [Compound 3.1]	4 µg/mL (≈ 10.3 µM)
CNc1cc(F)cc2c1[nH]c1nc(Sc3cnc4cccnc4c3)nc(N3CC(N)C4(CC4)C3)c12 (centres unmarked) [Compound 1.62]	≤ 0.5 µg/mL
CNc1cccc2c1[nH]c1nc(Oc3cncnc3)cc(N3CCC(N)CC3)c12 [Compound 3.64]	64 µg/mL (≈ 164 µM)
CNc1cccc2c1[nH]c1nc(Oc3cnc(N)nc3)cc(N3CC4C(N)C4C3)c12 (centres unmarked) [Compound 3.32]	2 µg/mL (≈ 4.97 µM)
CNc1cccc2c1[nH]c1nc(Oc3cncc(C(=O)O)c3)cc(N3CC4C(N)C4C3)c12 (centres unmarked) [Compound 3.20]	> 8 µg/mL
CNc1cccc2c1[nH]c1nc(Oc3cncc(C#N)c3)cc(N3CCN(CCN)CC3)c12 [Compound 3.55]	> 64 µg/mL
CNc1cccc2c1[nH]c1nc(Sc3cnc4cccnc4c3)nc(N3CC4C(C3)C4(N)CO)c12 (centres unmarked) [Compound 1.30]	> 64 µg/mL
CNc1cccc2c1[nH]c1nc(Oc3cncc(C#N)c3)cc(N3CC[C@@H](N)C3)c12 [Compound 3.3]	1 µg/mL (≈ 2.5 µM)
CNc1ncnc2c1[nH]c1nc(Oc3cnc(C)nc3)nc(N3CC4C(N)C4C3)c12 (centres unmarked) [Compound 7.05]	64 µg/mL (≈ 158 µM)
CNc1ccc(C)c2c1[nH]c1nc(Sc3cnc4ccc[n+]([O-])c4c3)nc(N3CC4C(N)C4C3)c12 (centres unmarked) [Compound 1.73]	8 µg/mL (≈ 16.5 µM)
CNc1ncnc2c1[nH]c1nc(Oc3cnc(C)nc3)nc(N3CCC4(CC4N)C3)c12 (centres unmarked) [Compound 7.09]	> 64 µg/mL
CNc1cccc2c1[nH]c1nc(Oc3cncnc3)cc(N3CCN(Cc4ccccn4)CC3)c12 [Compound 3.54]	> 32 µg/mL

Same assay, conditions: Escherichia coli, ATCC25922, Table 16; new R4 substituents; EC8 not defined; read-out: EC8 MIC

Structure (SMILES)	MIC
CNc1cc(F)cc2c1[nH]c1nc(Oc3cnc(C)nc3)nc(N3CC(N)C(C(=O)N4CCOCC4)C3)c12 (centres unmarked) [drawing 1827]	16 µg/mL (≈ 30.7 µM)
CNc1cc(F)cc2c1[nH]c1nc(Oc3cnc(C)nc3)nc(N3CCC[C@H]3CN)c12	2 µg/mL (≈ 4.73 µM)

Same assay, conditions: Table 18, Ec

Structure (SMILES)	MIC Ec
CNc1cc(F)cc2c1[nH]c1nc(Sc3nncs3)nc(N3C[C@H]4C[C@@H]3C[C@H]4N)c12 [Compound 10.11]	≤ 0.5 µg/mL
CNc1cc(F)c(Cl)c2c1[nH]c1nc(Oc3cnc4ccnn4c3)nc(N3CC4(CC[C@@H]4N)C3)c12 [Compound 10.94]	≤ 0.5 µg/mL
CNc1cc(F)cc2c1[nH]c1nc(SCc3cccnc3)nc(N3C[C@H]4C[C@@H]3C[C@H]4N)c12 [Compound 10.49]	2 µg/mL (≈ 4.45 µM)
CNc1cc(F)cc2c1[nH]c1nc(Oc3cnc(C)nc3)nc(N3C[C@H]4C[C@@H]3C[C@H]4N(CCO)CCO)c12 [Compound 10.115]	1 µg/mL (≈ 1.91 µM)
CNc1cc(F)cc2c1[nH]c1nc(Oc3cnc(C)nc3)nc(N3CC4CCC4(N)C3)c12 (centres unmarked) [Compound 10.65]	≤ 0.5 µg/mL
CNc1cc(F)cc2c1[nH]c1nc(Oc3cnc(C(C)O)nc3)nc(N3C[C@H]4C[C@@H]3[C@H](C)[C@H]4N)c12 (some centres unmarked) [Compound 10.78]	4 µg/mL (≈ 8.36 µM)
C=Cc1cc(F)c(F)c2c1[nH]c1nc(Oc3cnc(C)nc3)nc(N3C[C@H]4C[C@@H]3C[C@H]4N)c12 [Compound 10.110]	≤ 0.5 µg/mL
CNc1cc(F)cc2c1[nH]c1nc(Oc3cnc4c(C)cnn4c3)nc(N3C[C@H]4C[C@@H]3C[C@H]4N)c12 [Compound 10.19]	≤ 0.5 µg/mL
CNc1cc(F)cc2c1[nH]c1nc(Oc3cnc(C(C)O)c(Cl)c3)nc(N3CC4C[C@@H](N)C4C3)c12 (some centres unmarked) [Compound 10.17]	≤ 0.5 µg/mL
CNc1cc(F)cc2c1[nH]c1nc(Oc3cnc4ccnn4c3)nc(N3C[C@H]4CCN[C@H]4C3)c12 [Compound 10.13]	≤ 0.5 µg/mL
CNc1cc(F)cc2c1[nH]c1nc(Oc3ccc4cncnc4c3)nc(N3C[C@H]4C[C@@H]3C[C@H]4N)c12 [Compound 10.97]	2 µg/mL (≈ 4.25 µM)
